Patent publication US20130164384A1, “METHODS OF TREATING BOWEL DISEASES BY ADMINISTERING A BOWEL CLEANSER AND AN ANTIBIOTIC” (Salix Pharmaceuticals, Ltd., priority 2008, published 2013)

System: subjects diagnosed with dIBS
Experiment: Designed study of 14-day oral rifaximin 550 mg TID for adequate relief of dIBS symptoms over four weeks
Assay type: in vivo, human
Conditions: oral 550 mg TID, 14-day course; 4 week study duration
Method: A study is designed to evaluate the efficacy of a 14-day course of oral rifaximin at 550 mg TID in providing adequate relief from diarrhea-associated IBS (dIBS) symptoms over four weeks. The study populations includes subjects diagnosed with dIBS according to Rome III criteria utilizing the subtype for dIBS from the Rome II criteria. Subjects have a mean abdominal pain and discomfort score <4.5, a mean bloating score of <4.5 and a mean stool score (loose and watery)<3.5 for at least 7 of the 10 days during screening. A measure of efficacy is based on subjects' answers to the Weekly Subject Global Assessment (SGA) questions over the 4 week study duration in relation to their IBS symptoms. The SGA question is asked weekly as follows: “In the past 7 days, have you had adequate relief of your IBS symptoms?” (Yes/No.) It is discovered that Subjects in the treatment group taking oral rifaximin respond “Yes” more often than Subjects who are not taking oral rifaximin. Another measure of efficacy is based on subjects' answers to the Weekly Subject Global Assessment (SGA) question over the 4 week study duration in relation to their IBS symptom of bloating. The SGA question is asked weekly as follows: “In the past 7 days, have you had adequate relief of your IBS symptom of bloating?” (Yes/No). […]

For `COC1/C=C/OC2(C)Oc3c(C)c(O)c4c(O)c(c5c(nc6cc(C)ccn65)c4c3C2=O)NC(=O)/C(C)=C\C=C\C(C)C(O)C(C)C(O)C(C)C(OC(C)=O)C1C` [RFX, (2S,16Z,18E,20S,21S,22R,23R,24R,25S,26S,27S,28E)-5,6,21,23,25 Pentahydroxy-27-methoxy-2,4,11,16,20,22,24,26-octamethyl-2,7-(epoxypentadeca-(1,11,13)trienimino)benzofuro(4,5-e)pyrido(1,2,-a)benzimidazole-1,15(2H)-dione,25-acetate], the “"Yes" responses to weekly SGA question on adequate relief of IBS symptom of bloating versus subjects not taking rifaximin” value was “more often” and the “"Yes" responses to weekly SGA question on adequate relief of IBS symptoms versus subjects not taking rifaximin” value was “more often”.
